# How the values were obtained:
# [1] = Lipophilicity, log D of the compound; format: physicochemical; conditions: octanol/water
# [2] = Solubility of the compound; format: physicochemical
# [3] = Apparent permeability from apical to basolateral side of human Caco2 cells; format: ADME, cell-based; conditions: Caco-2
# [4] = target: T1, Retinoic acid receptor alpha (Homo sapiens, UniProt P10276); experiment: Inhibition of RAR alpha (unknown origin)
# T1 sequence (P10276 whole entry): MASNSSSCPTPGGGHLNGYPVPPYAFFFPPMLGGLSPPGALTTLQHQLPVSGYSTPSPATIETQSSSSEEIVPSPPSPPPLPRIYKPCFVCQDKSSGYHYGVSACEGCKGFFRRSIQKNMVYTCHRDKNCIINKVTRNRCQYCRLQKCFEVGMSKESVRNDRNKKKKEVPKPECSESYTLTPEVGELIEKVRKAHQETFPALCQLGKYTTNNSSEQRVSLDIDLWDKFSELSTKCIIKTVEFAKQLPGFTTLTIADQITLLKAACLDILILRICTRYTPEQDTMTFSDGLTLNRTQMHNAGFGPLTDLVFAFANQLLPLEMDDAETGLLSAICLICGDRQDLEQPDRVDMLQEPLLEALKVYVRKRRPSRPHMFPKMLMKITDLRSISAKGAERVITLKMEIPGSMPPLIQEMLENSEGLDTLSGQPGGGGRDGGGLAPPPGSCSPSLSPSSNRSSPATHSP
# [5] = target: T2, Retinoic acid receptor beta (Homo sapiens, UniProt P10826); experiment: Inhibition of RAR beta (unknown origin)
# T2 sequence (P10826 whole entry): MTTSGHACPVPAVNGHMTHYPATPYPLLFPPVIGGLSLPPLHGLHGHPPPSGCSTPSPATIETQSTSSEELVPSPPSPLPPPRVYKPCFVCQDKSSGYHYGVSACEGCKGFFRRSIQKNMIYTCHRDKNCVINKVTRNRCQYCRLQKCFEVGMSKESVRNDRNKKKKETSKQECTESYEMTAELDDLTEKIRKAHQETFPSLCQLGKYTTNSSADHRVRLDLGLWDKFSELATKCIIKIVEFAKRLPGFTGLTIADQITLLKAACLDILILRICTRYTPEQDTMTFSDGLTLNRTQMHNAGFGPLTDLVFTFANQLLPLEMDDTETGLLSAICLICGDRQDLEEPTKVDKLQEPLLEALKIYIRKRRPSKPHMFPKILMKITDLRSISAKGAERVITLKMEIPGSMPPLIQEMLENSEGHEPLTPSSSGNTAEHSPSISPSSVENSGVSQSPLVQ
# [6] = target: T3, Retinoic acid receptor gamma (Homo sapiens, UniProt P13631); experiment: Inhibition of RAR gamma (unknown origin)
# T3 sequence (P13631 whole entry): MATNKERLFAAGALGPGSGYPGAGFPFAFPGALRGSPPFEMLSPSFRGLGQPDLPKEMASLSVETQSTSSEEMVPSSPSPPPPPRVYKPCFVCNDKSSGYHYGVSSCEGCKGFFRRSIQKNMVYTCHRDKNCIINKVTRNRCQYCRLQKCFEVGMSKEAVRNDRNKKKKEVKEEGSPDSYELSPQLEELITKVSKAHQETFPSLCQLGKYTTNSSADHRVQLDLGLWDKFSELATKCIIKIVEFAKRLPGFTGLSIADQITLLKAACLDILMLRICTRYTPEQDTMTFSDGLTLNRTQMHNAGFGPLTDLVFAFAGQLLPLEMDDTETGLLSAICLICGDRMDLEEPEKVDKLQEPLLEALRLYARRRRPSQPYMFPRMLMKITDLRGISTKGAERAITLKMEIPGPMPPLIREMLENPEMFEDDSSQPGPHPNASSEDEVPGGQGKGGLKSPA
# [7] = Toxicity in testis (unknown origin); format: tissue-based
# [8] = target: T4, Hexokinase-4 (Homo sapiens, UniProt P35557); experiment: Activation of glucokinase (unknown origin)
# T4 sequence (P35557 whole entry): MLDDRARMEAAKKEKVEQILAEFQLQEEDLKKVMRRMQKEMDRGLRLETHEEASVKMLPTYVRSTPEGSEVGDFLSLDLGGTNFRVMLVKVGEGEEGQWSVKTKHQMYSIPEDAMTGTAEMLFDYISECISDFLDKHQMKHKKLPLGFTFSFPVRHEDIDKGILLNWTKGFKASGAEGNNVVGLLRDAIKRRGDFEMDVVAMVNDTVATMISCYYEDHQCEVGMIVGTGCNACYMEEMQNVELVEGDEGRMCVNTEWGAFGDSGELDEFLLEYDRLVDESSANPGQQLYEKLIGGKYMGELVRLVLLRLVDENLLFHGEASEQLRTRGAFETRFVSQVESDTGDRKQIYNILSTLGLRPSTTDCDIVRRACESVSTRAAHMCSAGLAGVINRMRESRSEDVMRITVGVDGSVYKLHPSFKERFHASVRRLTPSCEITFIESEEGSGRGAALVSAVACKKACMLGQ
# [9] = test system: Rattus norvegicus; experiment: Antidiabetic activity in rat assessed as reduction of glucose AUC at 10 mg/kg by oral glucose tolerance test; format: functional
# [10] = test system: Rattus norvegicus; experiment: Antidiabetic activity in rat assessed as reduction of glucose AUC at 3 mg/kg by oral glucose tolerance test; format: functional
# [11] = target: Voltage-gated inwardly rectifying potassium channel KCNH2 (Homo sapiens, UniProt Q12809)
# Voltage-gated inwardly rectifying potassium channel KCNH2, sequence (Q12809 whole entry): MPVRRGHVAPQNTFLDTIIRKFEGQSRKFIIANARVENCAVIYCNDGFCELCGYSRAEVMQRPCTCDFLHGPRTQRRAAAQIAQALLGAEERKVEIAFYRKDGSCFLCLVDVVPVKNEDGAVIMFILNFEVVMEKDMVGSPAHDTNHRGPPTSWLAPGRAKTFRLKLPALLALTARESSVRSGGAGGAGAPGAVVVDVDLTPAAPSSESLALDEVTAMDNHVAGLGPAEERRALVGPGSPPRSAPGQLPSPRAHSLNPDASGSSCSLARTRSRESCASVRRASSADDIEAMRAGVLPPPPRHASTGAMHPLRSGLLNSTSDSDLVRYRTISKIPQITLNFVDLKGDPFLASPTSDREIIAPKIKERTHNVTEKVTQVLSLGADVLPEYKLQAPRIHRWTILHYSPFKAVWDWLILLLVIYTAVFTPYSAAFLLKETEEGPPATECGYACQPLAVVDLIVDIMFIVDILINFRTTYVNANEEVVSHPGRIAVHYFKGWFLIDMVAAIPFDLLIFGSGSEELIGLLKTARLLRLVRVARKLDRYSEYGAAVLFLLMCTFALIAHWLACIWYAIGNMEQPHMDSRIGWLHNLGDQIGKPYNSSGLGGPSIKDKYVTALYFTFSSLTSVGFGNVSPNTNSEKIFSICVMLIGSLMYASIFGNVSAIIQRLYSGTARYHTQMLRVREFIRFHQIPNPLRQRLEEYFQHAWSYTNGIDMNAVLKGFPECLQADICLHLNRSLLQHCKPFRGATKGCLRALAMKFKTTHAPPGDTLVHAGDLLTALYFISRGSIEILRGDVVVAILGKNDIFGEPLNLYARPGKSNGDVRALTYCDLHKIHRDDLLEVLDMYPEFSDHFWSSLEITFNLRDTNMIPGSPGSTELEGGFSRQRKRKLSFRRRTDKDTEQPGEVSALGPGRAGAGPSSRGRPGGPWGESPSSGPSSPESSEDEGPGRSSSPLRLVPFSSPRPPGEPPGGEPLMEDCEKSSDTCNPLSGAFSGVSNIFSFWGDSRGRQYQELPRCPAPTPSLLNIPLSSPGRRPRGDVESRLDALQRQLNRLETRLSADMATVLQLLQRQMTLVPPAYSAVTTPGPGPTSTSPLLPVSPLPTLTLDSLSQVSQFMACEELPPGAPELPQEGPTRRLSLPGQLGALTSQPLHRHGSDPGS
Compound,logD [1],solubility [2],Papp A→B [3],IC50 [4],IC50 [5],IC50 [6],EC50 [8],Activity [7],inhibition in vivo at 10 mg/kg [9],inhibition in vivo at 3 mg/kg [10],IC50 [11]
COC[C@H](C)Oc1cc(Oc2cc(F)cc(F)c2)cc(C(=O)Nc2nccs2)c1,4.1,< 0.7 µM,–,–,–,–,0.07 µM,–,–,–,–
COC[C@H](C)Oc1cc(Oc2ccc(S(C)(=O)=O)cc2)cc(C(=O)Nc2nccs2)c1,3.2,20 µM,54 ×10⁻⁶ cm/s,> 30 µM,–,–,0.06 µM,Non-toxic,29%,–,–
COC[C@H](C)Oc1cc(Oc2ccc(S(C)(=O)=O)cc2)cc(C(=O)Nc2nc(C)ns2)c1,2.9,129 µM,29 ×10⁻⁶ cm/s,> 30 µM,–,–,0.11 µM,Non-toxic,–,27%,7.5 µM
O=C(O)c1ccc(NC(=O)c2cc(OCc3ccccc3F)cc(OCc3ccccc3F)c2)nc1,–,–,–,0.0111 µM,0.007 µM,1.2 µM,–,Toxic,–,–,–

# The next lines start with results.
logD [1],solubility [2],Papp A→B [3],IC50 [4],IC50 [5],IC50 [6],EC50 [8],Compound,Activity [7],inhibition in vivo at 10 mg/kg [9],inhibition in vivo at 3 mg/kg [10],IC50 [11]
-0.4,> 3000 µM,0.3 ×10⁻⁶ cm/s,–,–,–,–,COC[C@H](C)Oc1cc(Oc2ccc(S(C)(=O)=O)cc2)cc(C(=O)Nc2ccc(C(=O)O)cn2)c1,–,–,–,–
1.4,805 µM,7.4 ×10⁻⁶ cm/s,< 0.001 µM,< 0.001 µM,19 µM,–,COC[C@H](C)Oc1cc(Oc2cc(F)cc(F)c2)cc(C(=O)Nc2ccc(C(=O)O)cn2)c1,Toxic,–,–,–
–,–,–,0.47 µM,32 µM,> 1000 µM,–,COC[C@H](C)Oc1cc(O[C@@H](C)Cc2ccccc2)cc(C(=O)Nc2ccc(C(=O)O)cn2)c1,Toxic,–,–,–
–,–,–,0.01 µM,0.135 µM,22 µM,–,CC(C)COc1cc(OC(C)C)cc(C(=O)Nc2ccc(C(=O)O)cn2)c1,Toxic,–,–,–

# From ChEMBL document CHEMBL3217479, “Overcoming retinoic acid receptor- based testicular toxicity in the optimisation of glucokinase activators” (Medchemcomm, 2011)
